The values that follow are results of earlier work, collected in patent US6528013B1, “Uncomplexed cyclodextrin compositions for odor and wrinkle control” (The Procter & Gamble Company, priority 1998, dated 2003).

For the compound `OCCOc1ccccc1` [2-phenoxyethanol], the solubility in water result is on record as “about 2.67%”.
For `OCCc1ccccc1` [2-phenylethanol], the solubility in water result is listed as “about 2%”.
As for `O=[N+]([O-])C1(Br)COCOC1` [Bronidox L, 5-bromo-5-nitro-1,3-dioxane], the solubility in water entry is recorded as “about 0.46%”.
`O=[N+]([O-])C(Br)(CO)CO` [Bronopol, 2-bromo-2-nitropropane-1,3-diol]: the solubility in water result is “about 25%”.
In the case of `CC1(C)C(=O)N(CO)C(=O)N1CO` [DMDM hydantoin, 1,3-bis(hydroxymethyl)-5,5-dimethyl-2,4-imidazolidinedione], the solubility in water result was “more than 50%”.
Take `ClC=CC[N+]12CN3CN(CN(C3)C1)C2.[Cl-]` [Dowicil 200, 1-(3-Chlorallyl)-3,5,7-triaza-1-azoniaadamantane chloride]: the “solubility in water” value is on record as “freely soluble in water”.
Consider `OCc1ccccc1` [benzyl alcohol], for which the solubility in water result is given as “about 4%”.
In the case of `[H]/N=C(\N/C(=N/[H])NCCCCCCNC(=N)NC(=N)Nc1ccc(Cl)cc1)Nc1ccc(Cl)cc1` [chlorhexidine diacetate, 1,1′-hexamethylene bis(5-(p-chlorophenyl)biguanide), reference compound], the solubility in water entry is recorded as “about 1.8%”.
In the case of `[H]/N=C(\N/C(=N/[H])NCCCCCCNC(=N)NC(=N)Nc1ccc(Cl)cc1)Nc1ccc(Cl)cc1` [chlorhexidine digluconate, 1,1′-hexamethylene bis(5-(p-chlorophenyl)biguanide), reference compound], the solubility in water result is “about 70%”.
In the case of `CC(C)(O)C(Cl)(Cl)Cl` [chlorobutanol, 1,1,1-Trichloro-2-methylpropan-2-ol, reference compound], the solubility in water entry was “about 0.8%”.
As for `[Na+].[O-][n+]1ccccc1[S-]` [sodium pyrithione], the solubility in water entry is reported as “about 50%”.
